One assay has as its target CDK2/Cyclin E1 (Homo sapiens, UniProt P24941). Put plainly: CDK2/Cyclin E1 Biochemical Assay (TR-FRET), 0.060 mM ATP. As to conditions: 0.15 μM Rb (Ser780)-biotin substrate, pH7.0, 60 min preincubation, 120 min reaction, room temperature. A digest of the protocol: (§1)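 TR-FRET readout: 665/620 nm ratio from Eu-cryptate anti-pRb(Ser780) antibody plus streptavidin-XL665, converted to % inhibition and fitted (4-parameter logistic) for IC50. Reactions used 0.15 μM biotinylated Rb (Ser780) substrate, compound 0–10 μM, 60 min enzyme–compound preincubation, then 120 min reaction at room temperature.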
On the technique in general: Time-resolved FRET reads energy transfer from a long-lived donor to a nearby acceptor.

The target in another assay is CDK1/Cyclin B1 (Homo sapiens, UniProt P06493). Put plainly: CDK1/Cyclin B1 Biochemical Assay (TR-FRET), 0.015 mM ATP. The note with it: 0.15 μM Rb (Ser780)-biotin substrate, pH7.0, 60 min preincubation, 120 min reaction, room temperature. A digest of the protocol: as §1
CDK1/Cyclin B1, sequence (P06493 whole entry): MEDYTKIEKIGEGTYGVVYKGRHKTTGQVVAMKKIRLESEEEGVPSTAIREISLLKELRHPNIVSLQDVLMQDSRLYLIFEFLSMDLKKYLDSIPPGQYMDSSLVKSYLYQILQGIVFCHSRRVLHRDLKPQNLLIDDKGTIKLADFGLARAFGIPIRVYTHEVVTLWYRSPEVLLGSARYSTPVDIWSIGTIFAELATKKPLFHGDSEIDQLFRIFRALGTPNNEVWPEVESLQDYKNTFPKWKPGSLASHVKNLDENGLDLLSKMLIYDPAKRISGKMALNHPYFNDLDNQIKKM
CDK1/Cyclin B1, sequence (P14635 whole entry partner): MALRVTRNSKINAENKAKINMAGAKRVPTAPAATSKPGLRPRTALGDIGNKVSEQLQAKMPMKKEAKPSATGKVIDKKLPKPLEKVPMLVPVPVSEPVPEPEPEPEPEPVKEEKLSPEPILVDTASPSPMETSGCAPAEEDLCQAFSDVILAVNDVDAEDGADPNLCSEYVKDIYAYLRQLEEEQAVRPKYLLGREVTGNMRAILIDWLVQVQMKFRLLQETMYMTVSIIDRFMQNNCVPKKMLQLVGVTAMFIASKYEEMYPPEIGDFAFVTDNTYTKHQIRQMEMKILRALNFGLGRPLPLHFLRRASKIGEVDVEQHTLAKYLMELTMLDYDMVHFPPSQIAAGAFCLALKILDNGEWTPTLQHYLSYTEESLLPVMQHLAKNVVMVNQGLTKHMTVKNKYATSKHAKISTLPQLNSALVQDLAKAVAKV

By IC50 is commonly meant the midpoint of a concentration-inhibition curve. High values mean a need for much substance, low ones inhibition by little substance. For `CC1(NC(=O)O[C@H]2CC[C@@H](c3cc(Nc4ccc5c(c4F)CN(CCO)S5(=O)=O)n[nH]3)C2)CC1` (racemic) [Example 128, cis-3-(3-((4-fluoro-2-(2-hydroxyethyl)-1,1-dioxido-2,3-dihydrobenzo[d]isothiazol-5-yl)amino)-1H-pyrazol-5-yl)cyclopentyl(1-methylcyclopropyl)carbamate], the half-maximal inhibitory concentration (IC50) at CDK2/Cyclin E1 is 1.8 nM; against CDK1/Cyclin B1, 98 nM.
As to `CC(C)NC(=O)O[C@H]1CC[C@@H](c2cc(Nc3ccc4c(c3)CCS(=O)(=O)N4)n[nH]2)C1` (single isomer, unassigned) [Example 246b, cis-3-(3-((2,2-dioxido-3,4-dihydro-1H-benzo[c][1,2]thiazin-6-yl)amino)-1H-pyrazol-5-yl)cyclopentyl isopropylcarbamate], the IC50 amounted to 2.3 nM at CDK2/Cyclin E1 and 68 nM at CDK1/Cyclin B1.
For the compound `CC1(NC(=O)O[C@H]2CC[C@@H](c3cc(Nc4ccc5c(c4)CS(=O)(=O)N5)n[nH]3)C2)CCOCC1` (relative stereo) [Example 398, cis-3-(3-((2,2-dioxido-1,3-dihydrobenzo[c]isothiazol-5-yl)amino)-1H-pyrazol-5-yl)cyclopentyl(4-methyltetrahydro-2H-pyran-4-yl)carbamate], the IC50 worked out at 4.9 nM on CDK2/Cyclin E1 and 53 nM on CDK1/Cyclin B1.
For `COCCN1Cc2c(ccc(Nc3cc([C@@H]4CC[C@H](OC(=O)NC(C)C)C4)[nH]n3)c2C)S1(=O)=O` (relative stereo) [Example 36, cis-3-(3-((2-(2-methoxyethyl)-4-methyl-1,1-dioxido-2,3-dihydrobenzo[d]isothiazol-5-yl)amino)-1H-pyrazol-5-yl)cyclopentyl isopropylcarbamate] the same measures were 18 nM and 329 nM.
As for `CC1(NC(=O)O[C@H]2CC[C@@H](c3cc(Nc4ccc5c(c4F)CNS5(=O)=O)n[nH]3)C2)COC1` (single isomer, unassigned) [Example 164b, cis-3-(3-((4-fluoro-1,1-dioxido-2,3-dihydrobenzo[d]isothiazol-5-yl)amino)-1H-pyrazol-5-yl)cyclopentyl(3-methyloxetan-3-yl)carbamate], the half-maximal inhibitory concentration (IC50) on CDK2/Cyclin E1 was 8.4 nM; on CDK1/Cyclin B1, 189 nM.
`CC1(NC(=O)O[C@H]2CC[C@@H](c3cc(Nc4ccc5c(c4F)CN(C4COC4)S5(=O)=O)n[nH]3)C2)CC1` (relative stereo) [Example 135, cis-3-(3-((4-fluoro-2-(oxetan-3-yl)-1,1-dioxido-2,3-dihydrobenzo[d]isothiazol-5-yl)amino)-1H-pyrazol-5-yl)cyclopentyl(1-methylcyclopropyl)carbamate]: the figures for the IC50 at CDK2/Cyclin E1 and against CDK1/Cyclin B1 were 4.3 nM and 320 nM, respectively.
As to `O=C(NC1CCC12CC2)O[C@H]1CC[C@@H](c2cc(Nc3ccc4c(c3F)CNS4(=O)=O)n[nH]2)C1` (relative stereo) [Example 152, cis-3-(3-((4-fluoro-1,1-dioxido-2,3-dihydrobenzo[d]isothiazol-5-yl)amino)-1H-pyrazol-5-yl)cyclopentyl spiro[2.3]hexan-4-ylcarbamate], the IC50 at CDK2/Cyclin E1 was 3.6 nM; against CDK1/Cyclin B1, 324 nM.
Turning to `CC(C)NC(=O)O[C@H]1CC[C@@H](c2cc(Nc3cc4c(cc3F)C(C)(C)NS4(=O)=O)n[nH]2)C1` (relative stereo) [Example 8, cis-3-(3-((5-fluoro-3,3-dimethyl-1,1-dioxido-2,3-dihydrobenzo[d]isothiazol-6-yl)amino)-1H-pyrazol-5-yl)cyclopentyl isopropylcarbamate], the half-inhibitory concentration (IC50) against CDK2/Cyclin E1 worked out at 121 nM; at CDK1/Cyclin B1, 1540 nM.
Turning to `CCCNC(=O)O[C@H]1CC[C@@H](c2cc(Nc3ccc4c(c3F)CS(=O)(=O)N4C3COC3)n[nH]2)C1` (racemic) [Example 260, cis-3-(3-((4-fluoro-1-(oxetan-3-yl)-2,2-dioxido-1,3-dihydrobenzo[c]isothiazol-5-yl)amino)-1H-pyrazol-5-yl)cyclopentyl propylcarbamate], the IC50 on CDK2/Cyclin E1 worked out at 3.2 nM; against CDK1/Cyclin B1, 110 nM.
With `COCC(C)(C)NC(=O)O[C@H]1CC[C@@H](c2cc(Nc3ccc4c(c3F)CN(C3CC3)S4(=O)=O)n[nH]2)C1` (relative stereo) [Example 371, cis-3-(3-((2-cyclopropyl-4-fluoro-1,1-dioxido-2,3-dihydrobenzo[d]isothiazol-5-yl)amino)-1H-pyrazol-5-yl)cyclopentyl(1-methoxy-2-methylpropan-2-yl)carbamate], the results for the 50% inhibitory concentration (IC50) on CDK2/Cyclin E1 and on CDK1/Cyclin B1 were 3.5 nM and 265 nM, respectively.
Taken in the same sequence, the figures for `CN1Cc2c(ccc(Nc3cc([C@@H]4CC[C@H](OC(=O)NCC(C)(C)O)C4)[nH]n3)c2F)S1(=O)=O` (relative stereo) [Example 168, cis-3-(3-((4-fluoro-2-methyl-1,1-dioxido-2,3-dihydrobenzo[d]isothiazol-5-yl)amino)-1H-pyrazol-5-yl)cyclopentyl(2-hydroxy-2-methylpropyl)carbamate] were 12 nM and 545 nM.
`CCCNC(=O)O[C@H]1CC[C@@H](c2cc(Nc3ccc4c(c3F)CS(=O)(=O)N4C)n[nH]2)C1` (single isomer, unassigned) [Example 256a, cis-3-(3-((4-fluoro-1-methyl-2,2-dioxido-1,3-dihydrobenzo[c]isothiazol-5-yl)amino)-1H-pyrazol-5-yl)cyclopentyl propylcarbamate]: the values for the IC50 against CDK2/Cyclin E1 and against CDK1/Cyclin B1 were 5.3 nM and 334 nM, respectively.
Taken in the same sequence, the figures for `CCCNC(=O)O[C@H]1C[C@@H](c2cc(Nc3cc4c(cc3F)S(=O)(=O)NC4)n[nH]2)C1` [Example 50, cis-3-(3-((6-fluoro-1,1-dioxido-2,3-dihydrobenzo[d]isothiazol-5-yl)amino)-1H-pyrazol-5-yl)cyclobutyl propylcarbamate] were 5.6 nM and 140 nM.
For `CC1(NC(=O)O[C@H]2CC[C@@H](c3cc(Nc4ccc5c(c4F)CN(CCO)S5(=O)=O)n[nH]3)C2)CC1` (single isomer, unassigned) [Example 128b, cis-3-(3-((4-fluoro-2-(2-hydroxyethyl)-1,1-dioxido-2,3-dihydrobenzo[d]isothiazol-5-yl)amino)-1H-pyrazol-5-yl)cyclopentyl(1-methylcyclopropyl)carbamate] the same measures were 2.5 nM and 96 nM.
On to `CCCNC(=O)O[C@H]1CC[C@@H](c2cc(Nc3ccc4c(c3F)CS(=O)(=O)N4C3COC3)n[nH]2)C1` (single isomer, unassigned) [Example 260b, cis-3-(3-((4-fluoro-1-(oxetan-3-yl)-2,2-dioxido-1,3-dihydrobenzo[c]isothiazol-5-yl)amino)-1H-pyrazol-5-yl)cyclopentyl propylcarbamate], for which the figures for the IC50 against CDK2/Cyclin E1 and against CDK1/Cyclin B1 were 3.4 nM and 103 nM, respectively.
`CC(C)NC(=O)O[C@H]1CC[C@@H](c2cc(Nc3ccc4c(c3F)NS(=O)(=O)C4)n[nH]2)C1` (relative stereo) [Example 312, cis-3-(3-((7-fluoro-2,2-dioxido-1,3-dihydrobenzo[c]isothiazol-6-yl)amino)-1H-pyrazol-5-yl)cyclopentyl isopropylcarbamate]: the IC50 was found to be 4.3 nM against CDK2/Cyclin E1 and 147 nM against CDK1/Cyclin B1.

Source of the values: patent publication US20260297080A1, “BICYCLIC COMPOUNDS AS CDK INHIBITORS” (BeOne Medicines I GmbH, priority 2022, published 2026).
